Assay results reported in US20200397795A1, “PROPHYLACTIC TREATMENT OF VENOUS THROMBOEMBOLISM” (JANSSEN PHARMACEUTICALS, INC., priority 2019, published 2020).

Test system: venous thromboembolism (VTE) in patients hospitalized for acute medical illness
Assay: MAGELLAN (Study 1): efficacy of oral rivaroxaban 10 mg OD 35 days vs sc enoxaparin 40 mg OD 10 days then placebo
Type: in vivo
Procedure: The objective of Study 1 (MAGELLAN or MAGELLAN Study) was to compare efficacy and safety of venous thromboembolism (VTE) prophylaxis with oral rivaroxaban 10 mg once daily administered for 35±4 days (hereafter referred to as 35 days or Day 35) to subcutaneous enoxaparin 40 mg once daily (OD) administered for 10±4 days (hereafter referred to as 10 days or Day 10) in men and women aged 40 years or above, who have been hospitalized for a medical illness.
Diagnosis and main criteria for inclusion in Study 1 was men and women 40 years or above and at risk for VTE being hospitalized for acute medical illness conditions, including: heart failure (New York Heart Association [NYHA] class III or IV); active cancer (e.g., admitted for chemotherapy or for the treatment of a complication of active cancer); acute ischemic stroke; acute infectious and inflammatory diseases, including acute rheumatic diseases; and acute respiratory insufficiency. Also at least one additional risk factor for VTE, including: severe varicosis (varicosities); chronic venous insufficiency; history of cancer; history of deep vein thrombosis (DVT) or pulmonary embolism (PE); history of heart failure (NYHA class III or IV); thrombophilia (hereditary or acquired); recent major surgery (6-12 weeks); recent serious trauma (6-12 weeks); hormone replacement therapy; advanced age greater than or equal to 75 years; morbid obesity (body mass index (BMI) 35 kg/m^2 or higher); and acute infectious disease contributing to hospitalization.
The study was conducted in a prospective, randomized, double-blind, double dummy, active comparator-controlled, multicenter and multinational design. There were 8101 subjects were randomized at 556 study centers in 52 countries to one of the two treatment groups. Of the 8101 randomized subjects, 4050 were randomized to active rivaroxaban and 4051 were randomized to active enoxaparin.
Primary Endpoints: The primary efficacy variable was a composite of the number of events of: asymptomatic proximal DVT in lower extremity detected by mandatory bilateral lower extremity venous ultrasonography; symptomatic DVT in lower extremity, proximal or distal; symptomatic, non-fatal PE; and VTE-related death defined as either a well-documented fatal PE, or sudden death with no other plausible explanation. The two primary efficacy endpoints were (i) test of superiority at Day 35 (Days 29-41, inclusive) and (ii) test of non-inferiority at Day 10 (Days 6-15, inclusive).
Secondary Endpoints: The first major secondary efficacy endpoint was defined as a composite of the test of superiority at Day 35 with component of VTE-related death substituted by all-cause mortality, up to Day 35. The second major efficacy secondary efficacy endpoint was the test for superiority at Day 10 using the same composite endpoint as the Day 10 non-inferiority test.
For both primary efficacy endpoints, the relative risk ratio (rivaroxaban/enoxaparin) with respect to the incidences of the primary efficacy endpoint was estimated based on a stratified estimator using Mantel-Haenszel weights (based on sample sizes by geographic region). The corresponding asymptotic 2-sided 95% confidence interval based on the approximation to the normal distribution was determined. Sensitivity analyses were performed for the primary efficacy endpoints.
The primary efficacy variable was a composite of the number of events of (1) asymptomatic proximal DVT in lower extremity detected by mandatory bilateral lower extremity venous ultrasonography; (2) symptomatic DVT in lower extremity, proximal or distal; (3) symptomatic, nonfatal PE; and (4) VTE-related death. […]

[1] = Day 10 + 5, PP Day 10 plus major and clinically relevant bleeds
[2] = Day 10 + 5, per protocol Day 10 analysis set
[3] = Day 10 + 5 up to Day 35 + 6, mITT (Day 10 to Day 35) analysis set
[4] = Day 10 + 5 up to Day 35 + 6, mITT (Day 10 to Day 35) analysis set, listed as rivaroxaban
[5] = Day 35 + 6, mITT Day 35 analysis set
[6] = Day 35 + 6, mITT Day 35 analysis set, listed as rivaroxaban
[7] = Day 35 + 6, mITT Day 35 plus major and clinically relevant bleeds
[8] = Day 35, mITT Day 35 analysis set
[9] = rivaroxaban-placebo phase (Day 10 to Day 35), mITT (Day 10 to Day 35)

Structure (SMILES): O=C(NC[C@H]1CN(c2ccc(N3CCOCC3=O)cc2)C(=O)O1)c1ccc(Cl)s1 [Rivaroxaban, 5-chloro-N-({(5S)-2-oxo-3-[4-(3-oxo-4-morpholinyl)phenyl]-1,3,oxazolidin-5-yl}methyl)-2-thiophenecarboxamide]
- Major vascular events (CV death, acute myocardial infarction, or acute ischemic stroke), incidence (Day 10): 1.0%
- Symptomatic VTE excluding VTE-related death, incidence (Day 10): 0.5%
- Symptomatic VTE including death, incidence (Day 10): 0.7%
- Net clinical benefit component: asymptomatic lower proximal deep vein thrombosis [1]: 71 (2.4%)
- Net clinical benefit component: clinically relevant non-major bleeding [1]: 51 (1.7%)
- Net clinical benefit component: death (pulmonary embolism) [1]: 3 (0.1%)
- Net clinical benefit component: major bleeding [1]: 9 (0.3%)
- Net clinical benefit component: symptomatic deep vein thrombosis in lower extremity [1]: 7 (0.2%)
- Net clinical benefit component: symptomatic non-fatal pulmonary embolism [1]: 6 (0.2%)
- Net clinical benefit component: venous thromboembolism related death [1]: 3 (0.1%)
- Net clinical benefit, any event, incidence [1]: 134 (4.5%)
- Net clinical benefit, any event, incidence (Day 10 + 5, PP Day 10 plus major and clinically relevant bleeds, listed as rivaroxaban): 4.5%
- Asymptomatic proximal deep vein thrombosis in lower extremity, incidence [2]: 71 (2.4%)
- Death (pulmonary embolism cannot be excluded), incidence [2]: 3 (0.1%)
- Primary efficacy composite, any event, incidence [2]: 78 (2.7%)
- Symptomatic deep vein thrombosis in lower extremity, incidence [2]: 7 (0.2%)
- Venous thromboembolism related death, incidence [2]: 3 (0.1%)
- Primary efficacy composite, any event, incidence (Day 10 + 5, per protocol Day 10 analysis set, listed as rivaroxaban): 2.7%
- Asymptomatic proximal deep vein thrombosis in lower extremity, incidence [3]: 81 (2.1%)
- Death (pulmonary embolism cannot be excluded), incidence [3]: 8 (0.3%)
- Death (pulmonary embolism), incidence [3]: 1 (<0.1%)
- Symptomatic deep vein thrombosis in lower extremity, incidence [3]: 3 (0.1%)
- Symptomatic non-fatal pulmonary embolism, incidence [3]: 1 (<0.1%)
- Venous thromboembolism related death, incidence [3]: 9 (0.3%)
- Primary efficacy composite, any event, incidence (Day 10 + 5 up to Day 35 + 6, mITT (Day 10 to Day 35) analysis set, rivaroxaban-placebo phase): 72 (2.5%)
- Primary efficacy composite, any event, incidence (Day 10 + 5 up to Day 35 + 6, mITT (Day 10 to Day 35) analysis set, rivaroxaban-placebo phase, listed as rivaroxaban): 2.5%
- Asymptomatic proximal deep vein thrombosis in lower extremity, incidence [4]: 2.1%
- Venous thromboembolism related death, incidence [4]: 0.3%
- Relative risk (rivaroxaban/enoxaparin), primary efficacy composite (Day 10, PP Day 10 analysis set): 0.968
- Relative risk reduction, primary efficacy composite (Day 10, PP Day 10 analysis set): 3.25%
- Relative risk vs enoxaparin, subgroup (Day 10 PP, active cancer): 2.500
- Relative risk vs enoxaparin, subgroup (Day 10 PP, age subgroup 65 to <75 years): 1.88
- Relative risk vs enoxaparin, subgroup (Day 10 PP, complete immobilization >6 days post randomization): 0.671
- Relative risk vs enoxaparin, subgroup (Day 10 PP, complete immobilization post randomization 4-6 days): 1.75
- Major vascular events, incidence (Day 35): 1.8%
- Symptomatic VTE excluding VTE-related death, incidence (Day 35): 0.6%
- Symptomatic VTE including death, incidence (Day 35): 1.0%
- Asymptomatic proximal deep vein thrombosis in lower extremity, incidence [5]: 103 (3.5%)
- Death (pulmonary embolism cannot be excluded), incidence [5]: 18 (0.6%)
- Death (pulmonary embolism), incidence [5]: 1 (<0.1%)
- Primary efficacy composite, any event, incidence [5]: 131 (4.4%)
- Symptomatic deep vein thrombosis in lower extremity, incidence [5]: 13 (0.4%)
- Symptomatic non-fatal pulmonary embolism, incidence [5]: 10 (0.3%)
- Venous thromboembolism related death, incidence [5]: 19 (0.6%)
- Asymptomatic proximal deep vein thrombosis in lower extremity, incidence [6]: 3.5%
- Primary efficacy composite, any event, incidence [6]: 4.4%
- Venous thromboembolism related death, incidence [6]: 0.6%
- Net clinical benefit component: asymptomatic lower proximal deep vein thrombosis [7]: 104 (3.4%)
- Net clinical benefit component: clinically relevant non-major bleeding [7]: 124 (4.1%)
- Net clinical benefit component: death (pulmonary embolism cannot be excluded) [7]: 18 (0.6%)
- Net clinical benefit component: death (pulmonary embolism) [7]: 1 (<0.1%)
- Net clinical benefit component: major bleeding [7]: 43 (1.4%)
- Net clinical benefit component: symptomatic deep vein thrombosis in lower extremity [7]: 13 (0.4%)
- Net clinical benefit component: symptomatic non-fatal pulmonary embolism [7]: 10 (0.3%)
- Net clinical benefit component: venous thromboembolism related death [7]: 19 (0.6%)
- Net clinical benefit, any event, incidence [7]: 286 (9.4%)
- Net clinical benefit, any event, incidence (Day 35 + 6, mITT Day 35 plus major and clinically relevant bleeds, listed as rivaroxaban): 9.4%
- Relative risk (rivaroxaban/enoxaparin), primary efficacy composite [8]: 0.771
- Relative risk reduction, primary efficacy composite [8]: 22.89%
- Composite endpoint including all-cause mortality, incidence (Day 35, mITT Day 35 expanded): 8.6%
- Relative risk, composite endpoint including all-cause mortality (Day 35, mITT Day 35 expanded): 0.931
- Relative risk vs enoxaparin, subgroup (Day 35 mITT, active cancer): 1.340
- Relative risk vs enoxaparin, subgroup (Day 35 mITT, acute infectious and inflammatory disease): 0.657
- Relative risk vs enoxaparin, subgroup (Day 35 mITT, age subgroup 75 years): 0.624
- Relative risk vs enoxaparin, subgroup (Day 35 mITT, subjects in Western Europe (including Australia, New Zealand, Israel)): 0.5
- All-cause mortality, incidence (Day 90): 6.7%
- Major vascular events, incidence (Day 90): 2.8%
- Symptomatic VTE excluding VTE-related death, incidence (Day 90): 0.7%
- Symptomatic VTE including death, incidence (Day 90): 1.7%
- Relative risk reduction, primary efficacy composite [9]: 35.14%
- Relative risk, primary efficacy composite [9]: 0.649
